Peptide text beside a SMILES is read from it. * marks the point of attachment. NHtBu = CC(C)(C)N*
| Structure (SMILES) | logP |
| --- | --- |
| O=C(O)c1cc([N+](=O)[O-])c(Cl)c([N+](=O)[O-])c1 | 2.5 |
| O=c1nc[nH]c(=O)[nH]1 | -1.87 |
| COc1cccc(C(=O)NN)c1 | 0.4 |
| CC(C)COC(=O)c1ccccc1C(=O)OCC(C)C | 4.11 |
| Cc1ncc(CNC(=O)N(CCCl)N=O)c(N)n1 | 0.39 |
| CC(N)(Cc1ccc(O)cc1)C(=O)O (stereo not drawn) | -1.89 |
| CC(=O)NC(Cc1ccccc1)C(N)=O (stereo not drawn) | -0.04 |
| CC1=NCCN1 | 0.52 |
| FC(F)Oc1ccccc1 | 2.44 |
| CCNc1nc(NC(C)C)nc(SC(F)F)n1 | 3.7 |
| C1CCNC1 | 0.46 |
| O=Cc1cccc(C(F)(F)F)c1 | 2.47 |
| N#Cc1ccnc2ccccc12 | 1.98 |
| CCCCCC1(c2ccncc2)CCC(=O)NC1=O (stereo not drawn) | 2.26 |
| Cc1ccc(O)c(C)c1 | 2.3 |
| CCN(CC)C(=O)c1cccnc1 | 0.33 |
| O=[N+]([O-])c1ncn(CC(F)CO)n1 (stereo not drawn) | -0.8 |
| CS(=O)(=O)CC#N | -1.42 |
| O=C(O)Cc1cccc([N+](=O)[O-])c1 | 1.45 |
| CC(=O)Nc1ccccn1 | 0.61 |
| CC(C)NCC(O)COc1cccc2[nH]c3ccccc3c12 (stereo not drawn) | 3.59 |
| NNC(=O)c1ccnc(Cc2ccccc2)c1 | 1.01 |
| Cc1ccccc1C=C[N+](=O)[O-] | 2.63 |
| O=C(Oc1ccccc1)c1ccccc1 | 3.59 |

| Structure (SMILES) | logP |
| --- | --- |
| Brc1cccc(Br)c1 | 3.75 |
| COC(=O)c1ccc(OC)cc1 | 2.27 |
| Cc1cccc(OCc2ccccc2)n1 | 3.43 |
| O=C1OC(=O)c2ccccc21 | 1.6 |
| CNC(=O)Oc1ccccc1Cl | 1.64 |
| c1cscn1 | 0.44 |
| N#Cc1cccc(N)c1 | 1.07 |
| O=C1CC(=O)c2ccccc21 | 0.61 |
| O=S(=O)(Nc1ccccc1)C(F)F | 1.95 |
| O=C(O)Cc1ccc(Br)cc1 | 2.31 |
| CCCCCCCCOc1cccc(NC(=O)OCCN2CCCCC2)c1 | 5.82 |
| Nc1ccc(C(=O)O)cc1O | 0.5 |
| O=C(O)c1ccsc1 | 1.5 |
| CC(=O)c1ccc(F)cc1 | 1.72 |
| CN(C)C(=O)OCc1ccc([N+](=O)[O-])cc1 | 1.95 |
| Clc1cccc(-c2cccc(Cl)c2Cl)c1Cl | 6.18 |
| NC(=O)Nc1ccccc1 | 0.83 |
| CC1(C)O[C@@H]2C[C@H]3[C@@H]4C[C@H](F)C5=CC(=O)C=C[C@]5(C)[C@@]4(F)[C@@H](O)C[C@]3(C)[C@]2(C(=O)CO)O1 | 2.48 |
| CC[C@H](C)[C@H](NC(=O)[C@H](Cc1c[nH]c2ccccc12)NC(C)=O)C(=O)NCC(N)=O (Ac-Trp-Ile-Gly-NH2) | 0.62 |
| C1COCO1 | -0.37 |
| COCCN(C)c1ccc(Nn2c(C)ccc2C)nn1 | 2.16 |
| Nc1cccc(OC(=O)c2ccc(N)cc2O)c1 | 2.08 |
| COC1C(O)C(C)OC(OC2CCC3(C=O)C(CCC4C3CCC3(C)C(C5=CC(=O)OC5)CCC43O)C2)C1O (stereo not drawn) | 1.05 |
| CC(=O)c1ccccn1 | 0.85 |

| Structure (SMILES) | logP |
| --- | --- |
| C=C1C(=O)OC2CC(C)C3C=CC(=O)C3(C)CC12 (stereo not drawn) | 1.17 |
| CC(=O)Nc1cccc2ncccc12 | 0.71 |
| NC(=O)Nc1ccc(Br)cc1 | 1.98 |
| ClCc1ccccc1 | 2.3 |
| OCc1ccc2ccccc2c1 | 2.21 |
| C=C(C)C(=O)OCC(C)O (stereo not drawn) | 0.97 |
| CCCCC(C#N)(Cn1ccnc1)c1ccccc1 (stereo not drawn) | 2.94 |
| Nc1ccc(Sc2ccc(N)cc2)cc1 | 2.18 |
| CN(C)P(=O)(N(C)C)N(C)C | 0.28 |
| Oc1cccc(C(F)(F)F)c1 | 2.95 |
| O=c1[nH]c2ccccc2n1C1CCN(CCCC(c2ccc(F)cc2)c2ccc(F)cc2)CC1 | 6.3 |
| CCCCN1CCCCC1C(=O)Nc1c(C)cccc1C (stereo not drawn) | 3.41 |
| COc1ccnc2c([N+](=O)[O-])cccc12 | 1.92 |
| Cc1ccc2c(c1)nc(N)n2C | 1.47 |
| CN(C)C(N(C)C)=S(I)c1ccccc1F (stereo not drawn) | -0.55 |
| CCCCN(N=O)C(N)=O | 1.04 |
| CCCOc1cccc(C=C(C(C)=O)C(=O)OCC)c1 | 3.34 |
| Cc1cccc(NC(N)=O)c1 | 1.29 |
| CNC(=O)Oc1ccccc1Br | 1.77 |
| COc1ccc(CO)cc1 | 1.1 |
| COc1cc(C(=O)O)ccc1O | 1.43 |
| NC(=O)CCCCc1cccnc1 | 0.4 |
| O=c1[nH]cc(C(F)(F)F)c(=O)[nH]1 | 0.04 |
| CC(=O)NC(C)C(=O)NC(CC(=O)O)C(=O)NC(C)C(=O)NC(C)(C)C (stereo not drawn) (Ac-Ala-Asp-Ala-NHtBu; configuration not given here) | -0.74 |

| Structure (SMILES) | logP |
| --- | --- |
| CC(C)c1cc(Oc2ccccc2)cc(C(C)C)c1NC(=S)NC(C)(C)C | 6 |
| COC(=O)c1ccncc1 | 0.87 |
| COc1c(C)cccc1C | 3.02 |
| CCCCCCNC(=O)c1[nH]nc(C)c1[N+](=O)[O-] | 2.46 |
| CCC1(C2=CCCCC2)C(=O)NC(=O)N(C)C1=O (stereo not drawn) | 2.25 |
| NS(=O)(=O)Cc1ccccc1 | 0.13 |
| CCNC(N)=O | -0.74 |
| OCC(Br)(Br)Br | 2.1 |
| OC[C@H]1O[C@@H](n2cnc3c(O)ncnc32)[C@H](O)[C@@H]1O | -2.1 |
| COc1cccc(O)c1 | 1.34 |
| CC1=NCCN1CCO | 0.04 |
| CC(C)(Oc1ccccc1)C(=O)N[C@@H]1C(=O)N2[C@@H]1SC(C)(C)[C@@H]2C(=O)O | 2.76 |
| O=[N+]([O-])c1ccc(Cl)cc1 | 2.39 |
| OCCCOc1cccc(CN2CCCCC2)c1 | 2.78 |
| CC1CC(C)CN(N=O)C1 (stereo not drawn) | 1.53 |
| CC(C)(C)C(=O)NN | -0.35 |
| CC1=C(C(=O)Nc2ccccc2)SCCO1 | 2.14 |
| O=C(NCCN1CCC(O)(c2ccc(Cl)cc2)CC1)c1ccc(F)cc1 | 2.85 |
| CCCCC(CC)CN (stereo not drawn) | 2.82 |
| N#CCc1cccs1 | 1.26 |
| CCCC(C)=O | 0.91 |
| C1CNCCN1 | -1.5 |
| CSc1nnc(C(C)(C)C)c(=O)n1N | 1.7 |
| COc1ccccc1OC | 1.6 |

| Structure (SMILES) | logP |
| --- | --- |
| NC(=O)c1ccc(Br)cc1 | 1.76 |
| COc1ccc(C(=O)OCCN(C)C)cc1 | 2.21 |
| N#Cc1cccc(C=O)c1 | 1.18 |
| O=S(=O)(N=[N+]([O-])c1ccccc1)c1ccccc1 | 2.87 |
| N#Cc1c[nH]c2ccccc12 | 2.32 |
| C=CCN1CC[C@]23c4c5ccc(O)c4O[C@H]2[C@@H](O)C=C[C@H]3[C@H]1C5 | 1.86 |
| CC(C)C(=O)NN | -0.63 |
| CCOC(=O)NCCOc1ccc(Oc2ccccc2)cc1 | 4.3 |
| CN(C)C(N(C)C)=S(I)c1ccc(C(=O)O)cc1 (stereo not drawn) | -1.28 |
| O=C(O)Cc1c(Cl)ccc(Cl)c1Cl | 3.2 |
| CN(C)C(N(C)C)=S(I)c1ccc(Br)cc1 (stereo not drawn) | 0.06 |
| O=C1CC(OC(=O)c2ccccc2)N1 (stereo not drawn) | 1.37 |
| COP(=S)(OC)Oc1ccc([N+](=O)[O-])cc1Cl | 3.58 |
| O=C1OCc2ccccc21 | 0.8 |
| CNC(=O)Oc1ccc(Cl)cc1 | 2.01 |
| CCCSP(=O)(OCC)Oc1ccc(Br)cc1Cl (stereo not drawn) | 4.68 |
| COc1ccc(N)cc1 | 0.95 |
| C=CCC1(C(C)C)C(=O)NC(=O)NC1=O | 1.15 |
| Nc1c(S(=O)(=O)O)ccc2ccccc12 | -0.97 |
| C[C@]12CCC(=O)C=C1CC[C@@H]1[C@@H]2CC[C@]2(C)C(=O)CC[C@@H]12 | 2.75 |
| O=NN1CCCC1 | -0.19 |
| NCCO | -1.31 |

— the OPERA property sets (Mansouri et al. 2018)
